Broadly, the IC50 is the concentration that inhibits the measured activity by half. Higher therefore signals weaker potency.

Where a name gives a salt, the structure may show the parent alone. Bounds are passed on as bounds.

This experiment deals with HER2. As to the kind of experiment: HER2 degradation assay with BT-474 cell line (Example 12, FACS). In kind it is cell-based, human.
On to `CCc1c2c(nc3ccc(OC(=O)N(C)CC(=O)N4CCC(CCn5ccc6cc(-n7c(O)nnc7-c7cc(C(C)C)c(O)cc7O)ccc65)CC4)cc13)-c1cc3c(c(=O)n1C2)COC(=O)[C@]3(O)CC` [SDC-TRAP-0207, (S)-4,11-diethyl-4-hydroxy-3,14-dioxo-3,4,12,14-tetrahydro-1H-pyrano[3′,4′:6,7]indolizino[1,2-b]quinolin-9-yl (2-(4-(2-(5-(3-(2,4-dihydroxy-5-isopropylphenyl)-5-hydroxy-4H-1,2,4-triazol-4-yl)-1H-indol-1-yl)ethyl)piperidin-1-yl)-2-oxoethyl)(methyl)carbamate], for which the concentration for half-maximal inhibition (IC50) was above 5000 nM. `CCc1c2c(nc3ccc(O)cc13)-c1cc3c(c(=O)n1C2)COC(=O)C3(CC)OC(=O)N1CCN(Cc2cc3cc(-n4c(O)nnc4-c4cc(C(C)C)c(O)cc4O)ccc3n2C)CC1` (stereo not shown) [SDC-TRAP-0075, 4,11-diethyl-9-hydroxy-3,14-dioxo-3,4,12,14-tetrahydro-1H-pyrano[3′,4′:6,7]indolizino[1,2-b]quinolin-4-yl 4-((5-(3-(2,4-dihydroxy-5-isopropylphenyl)-5-hydroxy-4H-1,2,4-triazol-4-yl)-1-methyl-1H-indol-2-yl)methyl)piperazine-1-carboxylate] registered a half-maximal inhibitory concentration (IC50) of 953 nM.

Turning to `CCc1c2c(nc3ccc(O)cc13)-c1cc3c(c(=O)n1C2)COC(=O)[C@@]3(CC)OC(=O)N1CCC(Oc2ccc(-n3c(O)nnc3-c3cc(C(C)C)c(O)cc3O)cc2)CC1` [SDC-TRAP-0012, (S)-4,11-diethyl-9-hydroxy-3,14-dioxo-3,4,12,14-tetrahydro-1H-pyrano[13′,4′:6,7]indolizino[1,2-b]quinolin-4-yl-4-(4-(3-(2,4-dihydroxy-5-isopropylphenyl)-5-hydroxy-4H-1,2,4-triazol-4-yl)phenoxy)piperidine-1-carboxylate hydrochloride], the IC50 is above 5000 nM. As to `CCc1c2c(nc3ccc(O)cc13)-c1cc3c(c(=O)n1C2)COC(=O)[C@@]3(CC)OC(=O)N1CCC(COc2ccc(-n3c(O)nnc3-c3cc(C(C)C)c(O)cc3O)cc2)CC1` [SDC-TRAP-0014, (S)-4,11-diethyl-9-hydroxy-3,14-dioxo-3,4,12,14-tetrahydro-1H-pyrano[3,4:6,7]indolizino[1,2-b]quinolin-4-yl 4-((4-(3-(2,4-dihydroxy-5-isopropylphenyl)-5-hydroxy-4H-1,2,4-triazol-4-yl)phenoxy)methyl)piperidine-1-carboxylate], the IC50 is above 5000 nM. In the case of `CCc1c2c(nc3ccc(OC(=O)N4CCC(CN5CCN(Cc6ccc(-n7c(O)nnc7-c7cc(C(C)C)c(O)cc7O)cc6)CC5)CC4)cc13)-c1cc3c(c(=O)n1C2)COC(=O)[C@]3(O)CC` [SDC-TRAP-0088], the IC50 is 221 nM. Molecule `CCc1c2c(nc3ccc(OC(=O)N(C)CCNC(=O)c4nnc(-c5cc(C(C)C)c(O)cc5O)n4-c4cccnc4)cc13)-c1cc3c(c(=O)n1C2)COC(=O)C3(O)CC` (stereo not shown) [SDC-TRAP-0112, 4,11-Diethyl-4-hydroxy-3,14-dioxo-3,4,12,14-tetrahydro-1H-pyrano[3′,4′:6,7]indolizino[1,2-b]quinolin-9-yl (2-(5-(2,4-dihydroxy-5-isopropylphenyl)-4-(pyridin-3-yl)-4H-1,2,4-triazole-3-carboxamido)ethyl)(methyl)carbamate] registered a half-inhibitory concentration (IC50) above 5000 nM. For `CCc1c2c(nc3ccc(OC(=O)N4CCC(CCN5CCN(c6ccc(-n7c(O)nnc7-c7cc(C(C)C)c(O)cc7O)cc6)CC5)CC4)cc13)-c1cc3c(c(=O)n1C2)COC(=O)C3(O)CC` (stereo not shown) [SDC-TRAP-0070, 4,11-diethyl-4-hydroxy-3,14-dioxo-3,4,12,14-tetrahydro-1H-pyrano[3′,4′:6,7]indolizino[1,2-b]quinolin-9-yl 4-(2-(4-(4-(3-(2,4-dihydroxy-5-isopropylphenyl)-5-hydroxy-4H-1,2,4-triazol-4-yl)phenyl)piperazin-1-yl)ethyl)piperidine-1-carboxylate] the value was 263 nM.

The values are drawn from patent US10828315B2 (Madrigal Pharmaceuticals, Inc., priority 2013, dated 2020).
